Measured values published in ChEMBL document CHEMBL1765075, “Discovery and structure-activity relationship of 3-aminopyrid-2-ones as potent and selective interleukin-2 inducible T-cell kinase (Itk) inhibitors” (J Med Chem, 2011).

Key:
[1] = target: Serine/threonine-protein kinase Sgk1 (Homo sapiens, UniProt O00141); assay: Inhibition of SGK1
[2] = Inhibition of CK1
[3] = target: Tyrosine-protein kinase Fyn (Homo sapiens, UniProt P06241); assay: Inhibition of FYN
[4] = target: T1, Proto-oncogene tyrosine-protein kinase Src (Homo sapiens, UniProt P12931); assay: Inhibition of SRC
T1 sequence (P12931 2-536 limits assumed): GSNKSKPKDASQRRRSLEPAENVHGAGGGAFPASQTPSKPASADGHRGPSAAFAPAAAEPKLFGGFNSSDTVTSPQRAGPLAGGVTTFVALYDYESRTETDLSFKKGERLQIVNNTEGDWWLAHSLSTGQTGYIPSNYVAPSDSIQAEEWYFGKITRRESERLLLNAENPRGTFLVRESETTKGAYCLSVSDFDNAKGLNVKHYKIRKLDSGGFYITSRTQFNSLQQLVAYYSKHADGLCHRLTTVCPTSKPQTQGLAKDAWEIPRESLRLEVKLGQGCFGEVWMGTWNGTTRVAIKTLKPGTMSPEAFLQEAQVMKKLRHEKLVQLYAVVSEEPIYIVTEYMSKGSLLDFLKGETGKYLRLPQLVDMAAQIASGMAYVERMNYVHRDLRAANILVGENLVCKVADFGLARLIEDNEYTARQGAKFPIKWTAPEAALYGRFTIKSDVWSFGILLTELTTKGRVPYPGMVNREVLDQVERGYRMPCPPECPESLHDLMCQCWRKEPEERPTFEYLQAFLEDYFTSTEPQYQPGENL

[5] = target: Tyrosine-protein kinase JAK3 (Homo sapiens, UniProt P52333); assay: Inhibition of JAK3
[6] = Inhibition of PDK
[7] = target: Tyrosine-protein kinase JAK2 (Homo sapiens, UniProt O60674); assay: Inhibition of JAK2
[8] = target: Insulin-like growth factor 1 receptor (Homo sapiens, UniProt P08069); assay: Inhibition of IGF1R
[9] = target: Cyclin-dependent kinase 1 (Homo sapiens, UniProt P06493); assay: Inhibition of CDK1
[10] = target: Inhibitor of nuclear factor kappa-B kinase subunit alpha (Homo sapiens, UniProt O15111); assay: Inhibition of IKKalpha
[11] = target: Serine/threonine-protein kinase N2 (Homo sapiens, UniProt Q16513); assay: Inhibition of PRK2
Ceramide kinase = Ceramide kinase (Homo sapiens, UniProt Q8TCT0); assay: Inhibition of CERK
Sequence of Ceramide kinase (Q8TCT0 whole entry): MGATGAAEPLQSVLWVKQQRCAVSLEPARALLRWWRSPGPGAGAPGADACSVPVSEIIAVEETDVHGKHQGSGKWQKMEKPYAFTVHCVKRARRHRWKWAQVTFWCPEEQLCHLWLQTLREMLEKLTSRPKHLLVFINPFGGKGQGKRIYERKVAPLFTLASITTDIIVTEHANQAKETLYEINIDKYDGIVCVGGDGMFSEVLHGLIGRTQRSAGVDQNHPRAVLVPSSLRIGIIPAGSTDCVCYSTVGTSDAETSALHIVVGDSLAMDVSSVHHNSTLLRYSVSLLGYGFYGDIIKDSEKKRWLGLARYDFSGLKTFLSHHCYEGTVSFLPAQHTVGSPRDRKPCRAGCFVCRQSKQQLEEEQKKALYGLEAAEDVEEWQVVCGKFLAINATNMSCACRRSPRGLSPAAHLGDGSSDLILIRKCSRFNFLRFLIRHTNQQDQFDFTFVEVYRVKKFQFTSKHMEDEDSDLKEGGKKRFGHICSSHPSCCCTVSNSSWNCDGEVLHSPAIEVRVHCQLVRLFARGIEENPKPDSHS

[12] = target: Glycogen synthase kinase-3 beta (Homo sapiens, UniProt P49841); assay: Inhibition of GSK3-beta
[13] = Inhibition of RLK
[14] = Octanol-phosphate buffer partition coefficient, log D of the compound at pH 7.4 by HPLC analysis; assay type: physicochemical
[15] = target: Mast/stem cell growth factor receptor Kit (Homo sapiens, UniProt P10721); assay: Inhibition of KIT
[16] = target: Serine/threonine-protein kinase PLK3 (Homo sapiens, UniProt Q9H4B4); assay: Inhibition of PLK3
Sequence of Serine/threonine-protein kinase PLK3 (Q9H4B4 whole entry): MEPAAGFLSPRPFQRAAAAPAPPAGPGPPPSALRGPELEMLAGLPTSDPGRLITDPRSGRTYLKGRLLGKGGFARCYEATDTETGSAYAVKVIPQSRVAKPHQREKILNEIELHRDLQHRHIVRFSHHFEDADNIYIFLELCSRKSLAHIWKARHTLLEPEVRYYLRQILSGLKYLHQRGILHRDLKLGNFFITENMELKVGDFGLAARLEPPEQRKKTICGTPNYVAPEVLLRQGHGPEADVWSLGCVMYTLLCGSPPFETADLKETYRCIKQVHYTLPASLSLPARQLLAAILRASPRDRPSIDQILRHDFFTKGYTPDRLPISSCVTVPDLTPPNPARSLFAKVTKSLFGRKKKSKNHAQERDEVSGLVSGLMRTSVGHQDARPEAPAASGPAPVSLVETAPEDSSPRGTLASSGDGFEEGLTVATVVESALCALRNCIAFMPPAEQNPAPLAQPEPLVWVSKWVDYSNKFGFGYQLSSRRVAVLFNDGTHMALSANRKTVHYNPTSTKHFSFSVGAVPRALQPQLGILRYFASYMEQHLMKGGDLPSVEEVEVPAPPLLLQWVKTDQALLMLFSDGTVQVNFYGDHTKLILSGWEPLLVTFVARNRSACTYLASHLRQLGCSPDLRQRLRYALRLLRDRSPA

[17] = target: T2, Serine/threonine-protein kinase Chk1 (Homo sapiens, UniProt O14757); assay: Inhibition of CHK1
T2 sequence (O14757 whole entry): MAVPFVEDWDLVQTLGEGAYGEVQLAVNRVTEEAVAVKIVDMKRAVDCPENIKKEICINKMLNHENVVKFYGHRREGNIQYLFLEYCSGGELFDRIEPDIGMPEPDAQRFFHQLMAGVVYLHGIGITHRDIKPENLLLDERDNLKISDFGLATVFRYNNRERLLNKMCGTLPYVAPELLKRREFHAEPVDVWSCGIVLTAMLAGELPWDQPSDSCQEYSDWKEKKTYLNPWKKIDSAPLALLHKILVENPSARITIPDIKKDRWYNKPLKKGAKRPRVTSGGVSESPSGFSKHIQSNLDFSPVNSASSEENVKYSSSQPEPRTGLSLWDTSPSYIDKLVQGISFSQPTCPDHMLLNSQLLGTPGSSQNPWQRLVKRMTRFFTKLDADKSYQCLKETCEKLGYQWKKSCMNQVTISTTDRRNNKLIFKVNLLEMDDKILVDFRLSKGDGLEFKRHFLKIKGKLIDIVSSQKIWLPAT

Angiopoietin-1 receptor = Angiopoietin-1 receptor (Homo sapiens, UniProt Q02763); assay: Inhibition of TIE2
[18] = Permeability across apical to basolateral side of human Caco2 cells after 120 mins by LC-MS/MS analysis; assay type: ADME, cell-based; conditions: Caco-2, read-out: permeability
[19] = target: Ribosomal protein S6 kinase alpha-5 (Homo sapiens, UniProt O75582); assay: Inhibition of MSK1
Sequence of Ribosomal protein S6 kinase alpha-5 (O75582 whole entry): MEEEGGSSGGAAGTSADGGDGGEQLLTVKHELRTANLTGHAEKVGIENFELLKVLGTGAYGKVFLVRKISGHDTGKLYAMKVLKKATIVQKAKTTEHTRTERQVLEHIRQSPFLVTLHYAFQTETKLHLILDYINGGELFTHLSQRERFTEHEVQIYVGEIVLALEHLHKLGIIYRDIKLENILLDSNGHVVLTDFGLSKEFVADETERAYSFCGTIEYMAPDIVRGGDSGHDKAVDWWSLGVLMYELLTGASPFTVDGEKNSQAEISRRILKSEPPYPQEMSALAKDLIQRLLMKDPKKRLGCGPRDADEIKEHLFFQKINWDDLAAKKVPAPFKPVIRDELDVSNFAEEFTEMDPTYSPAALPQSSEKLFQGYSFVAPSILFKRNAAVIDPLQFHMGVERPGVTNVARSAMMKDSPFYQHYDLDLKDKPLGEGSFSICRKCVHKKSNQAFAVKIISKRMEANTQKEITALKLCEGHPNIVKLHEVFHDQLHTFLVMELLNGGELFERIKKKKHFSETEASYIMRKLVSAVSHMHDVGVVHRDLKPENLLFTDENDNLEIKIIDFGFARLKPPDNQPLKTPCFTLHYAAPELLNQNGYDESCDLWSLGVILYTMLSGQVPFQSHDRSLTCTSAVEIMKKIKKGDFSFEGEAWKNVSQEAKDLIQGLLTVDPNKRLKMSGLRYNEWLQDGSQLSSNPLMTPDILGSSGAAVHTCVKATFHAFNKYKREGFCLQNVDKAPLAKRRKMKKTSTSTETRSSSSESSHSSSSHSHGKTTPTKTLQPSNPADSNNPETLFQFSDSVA

[20] = target: Tyrosine-protein kinase HCK (Homo sapiens, UniProt P08631); assay: Inhibition of HCK
[21] = target: Mitogen-activated protein kinase 8 (Homo sapiens, UniProt P45983); assay: Inhibition of JNK1
[22] = target: Receptor tyrosine-protein kinase erbB-4 (Homo sapiens, UniProt Q15303); assay: Inhibition of ERBB4
[23] = target: Macrophage-stimulating protein receptor (Homo sapiens, UniProt Q04912); assay: Inhibition of RON
[24] = target: Serine/threonine-protein kinase pim-1 (Homo sapiens, UniProt P11309); assay: Inhibition of PIM1
[25] = target: T2, Serine/threonine-protein kinase Chk1; assay: Inhibition of CHEK1
[26] = target: Tyrosine-protein kinase Yes (Homo sapiens, UniProt P07947); assay: Inhibition of YES
Ephrin type-B receptor 2 = Ephrin type-B receptor 2 (Homo sapiens, UniProt P29323); assay: Inhibition of EPHB2
[27] = target: Rho-associated protein kinase 2 (Homo sapiens, UniProt O75116); assay: Inhibition of ROCK2
[28] = target: Tyrosine-protein kinase BTK (Homo sapiens, UniProt Q06187); assay: Inhibition of BTK
[29] = target: Tyrosine-protein kinase Fes/Fps (Homo sapiens, UniProt P07332); assay: Inhibition of FES
[30] = target: Dual specificity mitogen-activated protein kinase kinase 6 (Homo sapiens, UniProt P52564); assay: Inhibition of MKK6
[31] = target: MAP kinase-activated protein kinase 5 (Homo sapiens, UniProt Q8IW41); assay: Inhibition of PRAK
Sequence of MAP kinase-activated protein kinase 5 (Q8IW41 whole entry): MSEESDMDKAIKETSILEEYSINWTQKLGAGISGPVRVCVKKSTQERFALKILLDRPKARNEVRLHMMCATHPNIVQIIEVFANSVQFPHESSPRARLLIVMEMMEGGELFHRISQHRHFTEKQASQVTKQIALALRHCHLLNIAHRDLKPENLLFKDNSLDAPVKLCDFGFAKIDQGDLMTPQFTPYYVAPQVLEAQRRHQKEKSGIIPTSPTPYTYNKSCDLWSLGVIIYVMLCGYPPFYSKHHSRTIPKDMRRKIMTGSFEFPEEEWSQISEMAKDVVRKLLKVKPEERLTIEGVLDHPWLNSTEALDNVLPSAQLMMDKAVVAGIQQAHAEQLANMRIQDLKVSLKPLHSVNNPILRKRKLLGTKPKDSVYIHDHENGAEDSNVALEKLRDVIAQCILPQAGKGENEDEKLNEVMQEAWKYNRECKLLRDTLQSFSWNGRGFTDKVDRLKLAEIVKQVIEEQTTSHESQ

[32] = target: Platelet-derived growth factor receptor alpha (Homo sapiens, UniProt P16234); assay: Inhibition of PDGFRalpha
[33] = target: Tyrosine-protein kinase Fer (Homo sapiens, UniProt P16591); assay: Inhibition of FER
Sequence of Tyrosine-protein kinase Fer (P16591 whole entry): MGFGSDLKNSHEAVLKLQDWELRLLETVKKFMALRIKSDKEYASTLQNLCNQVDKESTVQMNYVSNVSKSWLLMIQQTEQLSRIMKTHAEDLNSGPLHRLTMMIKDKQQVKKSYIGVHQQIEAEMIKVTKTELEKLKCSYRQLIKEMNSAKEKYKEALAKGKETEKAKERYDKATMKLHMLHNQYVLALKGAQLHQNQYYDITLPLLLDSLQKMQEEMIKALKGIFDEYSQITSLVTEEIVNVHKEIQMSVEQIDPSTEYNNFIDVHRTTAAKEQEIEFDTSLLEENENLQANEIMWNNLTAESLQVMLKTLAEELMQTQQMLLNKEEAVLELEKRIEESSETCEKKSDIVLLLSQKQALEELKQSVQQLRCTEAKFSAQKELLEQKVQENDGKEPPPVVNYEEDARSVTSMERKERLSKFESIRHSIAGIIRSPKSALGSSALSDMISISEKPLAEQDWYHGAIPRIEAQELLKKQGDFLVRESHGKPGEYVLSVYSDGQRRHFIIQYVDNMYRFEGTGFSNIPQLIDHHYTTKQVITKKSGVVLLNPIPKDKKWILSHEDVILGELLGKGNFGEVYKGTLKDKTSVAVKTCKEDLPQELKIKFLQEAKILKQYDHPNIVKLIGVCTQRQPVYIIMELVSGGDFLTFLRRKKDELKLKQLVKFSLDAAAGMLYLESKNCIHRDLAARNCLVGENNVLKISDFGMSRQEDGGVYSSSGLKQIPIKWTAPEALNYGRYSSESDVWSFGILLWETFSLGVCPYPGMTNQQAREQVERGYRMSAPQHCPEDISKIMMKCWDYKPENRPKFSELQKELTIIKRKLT

[34] = target: Ribosomal protein S6 kinase beta-1 (Homo sapiens, UniProt P23443); assay: Inhibition of P70S6K1
[35] = target: T1, Proto-oncogene tyrosine-protein kinase Src; assay: Inhibition of Src after 10 mins by radiometric phosphate incorporation assay
[36] = Permeability across basolateral to apical side of human Caco2 cells after 120 mins by LC-MS/MS analysis; assay type: ADME, cell-based; conditions: Caco-2, read-out: permeability
[37] = target: Interleukin-1 receptor-associated kinase 4 (Homo sapiens, UniProt Q9NWZ3); assay: Inhibition of IRAK4
[38] = target: T3, Receptor-type tyrosine-protein kinase FLT3 (Homo sapiens, UniProt P36888); assay: Inhibition of Flt3 after 20 mins by radiometric phosphate incorporation assay
T3 sequence (P36888 whole entry): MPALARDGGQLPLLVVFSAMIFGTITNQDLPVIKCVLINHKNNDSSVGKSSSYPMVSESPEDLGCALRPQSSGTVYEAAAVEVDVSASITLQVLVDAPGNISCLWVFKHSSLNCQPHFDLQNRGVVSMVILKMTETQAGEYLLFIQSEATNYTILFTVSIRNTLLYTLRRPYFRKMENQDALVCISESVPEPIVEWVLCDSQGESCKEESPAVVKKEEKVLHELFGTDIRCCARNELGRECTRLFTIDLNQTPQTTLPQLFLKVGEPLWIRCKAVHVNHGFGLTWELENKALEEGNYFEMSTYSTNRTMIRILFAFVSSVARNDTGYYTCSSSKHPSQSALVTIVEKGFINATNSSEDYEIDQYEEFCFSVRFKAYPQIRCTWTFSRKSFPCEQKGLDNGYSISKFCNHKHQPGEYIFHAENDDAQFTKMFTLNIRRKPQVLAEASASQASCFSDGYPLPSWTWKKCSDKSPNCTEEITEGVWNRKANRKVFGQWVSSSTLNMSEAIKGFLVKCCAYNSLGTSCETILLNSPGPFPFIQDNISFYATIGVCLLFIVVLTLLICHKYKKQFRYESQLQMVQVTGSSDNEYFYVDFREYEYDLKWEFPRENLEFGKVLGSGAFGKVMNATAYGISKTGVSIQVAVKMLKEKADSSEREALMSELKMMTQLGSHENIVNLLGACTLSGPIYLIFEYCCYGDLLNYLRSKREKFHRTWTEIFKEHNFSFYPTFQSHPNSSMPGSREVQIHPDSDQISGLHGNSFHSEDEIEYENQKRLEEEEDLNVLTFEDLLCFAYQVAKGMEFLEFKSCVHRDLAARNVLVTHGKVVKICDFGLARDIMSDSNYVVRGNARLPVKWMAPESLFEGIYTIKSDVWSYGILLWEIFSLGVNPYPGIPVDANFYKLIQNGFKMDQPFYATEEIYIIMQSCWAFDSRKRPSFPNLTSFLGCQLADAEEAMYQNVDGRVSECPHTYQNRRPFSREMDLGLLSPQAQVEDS

Sequence of Tyrosine-protein kinase Fyn (P06241 whole entry): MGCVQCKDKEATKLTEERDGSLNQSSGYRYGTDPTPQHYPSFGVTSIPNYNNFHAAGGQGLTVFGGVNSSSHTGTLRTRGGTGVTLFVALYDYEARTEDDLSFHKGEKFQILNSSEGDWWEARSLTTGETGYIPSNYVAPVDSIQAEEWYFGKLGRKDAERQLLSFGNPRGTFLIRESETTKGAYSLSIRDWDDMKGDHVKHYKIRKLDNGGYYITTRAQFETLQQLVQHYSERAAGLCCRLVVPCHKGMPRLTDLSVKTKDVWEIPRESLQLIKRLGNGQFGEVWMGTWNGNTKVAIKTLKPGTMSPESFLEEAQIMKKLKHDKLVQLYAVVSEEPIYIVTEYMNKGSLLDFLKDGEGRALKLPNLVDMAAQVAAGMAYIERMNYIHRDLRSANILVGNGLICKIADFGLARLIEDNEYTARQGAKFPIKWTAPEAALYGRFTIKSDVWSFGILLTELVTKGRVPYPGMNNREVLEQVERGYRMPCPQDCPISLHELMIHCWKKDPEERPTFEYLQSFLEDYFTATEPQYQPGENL

CNc1cncc(-c2c[nH]c(=O)c(NC(=O)c3ccc(N4CCC[C@H]4CN4CCCC4)cc3)c2)n1
Ki [1]: > 1000 nM | Ki [2]: > 1000 nM | Ki [3]: > 1000 nM | Ki [4]: 120 nM | Ki [5]: 350 nM | Ki [6]: > 1000 nM | Ki [7]: 370 nM | Ki [8]: > 1000 nM | Ki [9]: > 1000 nM | Ki [10]: > 1000 nM | Ki [11]: > 1000 nM | Ki (Ceramide kinase): > 1000 nM | Ki [12]: > 1000 nM | Ki [13]: > 2000 nM | logD [14]: 2.8 | Ki [15]: 200 nM | Ki [16]: > 1000 nM | Ki [17]: > 1000 nM | Ki (Angiopoietin-1 receptor): > 1000 nM | Papp A→B at 2 h [18]: 10.8 ×10⁻⁶ cm/s | Ki [19]: > 1000 nM | Ki [20]: > 1000 nM | Ki [21]: > 1000 nM | Ki [22]: > 1000 nM | Ki [23]: > 1000 nM | Ki [24]: > 1000 nM | Ki [25]: > 1000 nM | Ki [26]: > 1000 nM | Ki (Ephrin type-B receptor 2): > 1000 nM | Ki [27]: > 1000 nM | Ki [28]: > 1000 nM | Ki [29]: > 1000 nM | Ki [30]: > 1000 nM | Ki [31]: > 1000 nM | Ki [32]: > 1000 nM | Ki [33]: > 1000 nM | Ki [34]: > 1000 nM | Ki [35]: 120 nM | Papp B→A at 2 h [36]: 32.4 ×10⁻⁶ cm/s | Ki [37]: > 1000 nM | Ki [38]: 20 nM
